Assay: Antiinflammatory activity in mouse J774.1 cells assessed as inhibition of LPS-induced NO production
Type: functional, cell-based

Row | IC50 | SMILES
1 | 7.1 µM | C=Cc1c2c(nc3cc(O)c([C@@H]4C[C@@]5(CC)CCCN6CCc7c(n4c4ccccc74)[C@H]65)cc13)N1CCC[C@](CC)(C2)C1 [LEUCOPHYLLIDINE]
2 | 22 µg/mL | CNC(=N)NCCC[C@H](N)C(=O)O [TILARGININE]
